Reference: US20080031903A1, “METHOD OF TREATING OCULAR INFECTIONS” (priority 2006, published 2008)
Values joined by “and” are separate entries in the source; they are usually repeats but may differ in a detail not shown here. Equal entries are not always repeated. “Also recorded” adds a separate entry of the source.

How the values were obtained:
Ad5 [1] = test: Ad5/NZW rabbit ocular model, Example 5 (IG-Ad-R3); type: in vivo
Description: Additional experiments were conducted substantially as described in Example 3, in order to determine the antiviral efficacy of a 100 mg/ml solution of IG (intravenous Immune Globulin) in the Ad5/NZW rabbit ocular model.

Ad5 [2] = test: Ad5/NZW rabbit ocular model, combined analysis of Examples 3 and 5; type: in vivo
Source text: The following summarizes the in vivo studies provided in Examples 3 and 5. Data from the two studies were combined, analyzed by Minitab statistical software using Analysis of Variance (ANOVA), and X^2 analyses. Significance was established at the p<0.05 confidence.
The daily reduction in percent Ad5 positive cultures per total for all treatment groups is presented graphically in FIG. 4.
The mean combined Ad5 ocular titers represent a global measure of adenovirus replication during the early and late phases of infection. These were determined by calculating the mean and standard deviation of all ocular cultures from each treatment group during the early and late phases (n=80 for all groups).
The mean duration of shedding was estimated by determining the last day on which adenovirus positive cultures were obtained and calculating the mean and standard deviation.

[3] = Days 1-5, Early Phase of Infection
[4] = Days 7-14, Late Phase of Infection

In the case of `Nc1ccn(C[C@@H](CO)OCP(=O)(O)O)c(=O)n1` [0.5% Cidofovir, Cidofovir], the “Ad5 ocular viral titer, individual eye” value (Ad5 [1]; D 0, before treatment) is reported as 1050 pfu/ml and 50 pfu/ml and 1350 pfu/ml and 1200 pfu/ml and 30 pfu/ml and 6300 pfu/ml and 20 pfu/ml and 600 pfu/ml and 750 pfu/ml and 140 pfu/ml, the “Ad5 ocular viral titer, individual eye” value (Ad5 [1]; D 1) is reported as 35 pfu/ml and 10 pfu/ml and 550 pfu/ml and 5 pfu/ml and 500 pfu/ml and 60 pfu/ml and 200 pfu/ml and 700 pfu/ml (2×) and 400 pfu/ml and the “Ad5 ocular viral titer, individual eye” value (Ad5 [1]; D 3) is reported as 1500 pfu/ml and 5 pfu/ml and 2900 pfu/ml (2×) and 105 pfu/ml and 2600 pfu/ml and 1350 pfu/ml and 1600 pfu/ml and 4500 pfu/ml and 3500 pfu/ml. For the same compound, the “Ad5 ocular viral titer, individual eye” value (Ad5 [1]; D 4) was 0 pfu/ml (2×) and 5 pfu/ml and 750 pfu/ml and 1100 pfu/ml and 400 pfu/ml and 1150 pfu/ml and 7100 pfu/ml and 2000 pfu/ml and 1900 pfu/ml, the “Ad5 ocular viral titer, individual eye” value (Ad5 [1]; D 5) was 15 pfu/ml and 0 pfu/ml (2×) and 750 pfu/ml and 5 pfu/ml and 1400 pfu/ml and 700 pfu/ml and 600 pfu/ml and 850 pfu/ml and 950 pfu/ml and the “Ad5 ocular viral titer, individual eye” value (Ad5 [1]; D 7) was 0 pfu/ml (6×) and 25 pfu/ml and 5 pfu/ml (2×) and 10 pfu/ml. For the same compound, the “Ad5 ocular viral titer, individual eye” value (Ad5 [1]; D 9) was 0 pfu/ml, the “Ad5 ocular viral titer, individual eye” value (Ad5 [1]; D 11) was 0 pfu/ml and the “Ad5 ocular viral titer, individual eye” value (Ad5 [1]; D 14) was 0 pfu/ml. The “Positive Cultures per Total” value (Ad5 [1]; Day 0, before treatment) was 10/10, the “Positive Cultures per Total, percent” value (Ad5 [1]; Day 0, before treatment) was 100% and the “Positive Cultures per Total” value (Ad5 [1]; Day 1) was 10/10. For the same compound, the “Positive Cultures per Total, percent” value (Ad5 [1]; Day 1) was 100%, the “Positive Cultures per Total” value (Ad5 [1]; Day 3) was 10/10 and the “Positive Cultures per Total, percent” value (Ad5 [1]; Day 3) was 100%. The “Positive Cultures per Total” value (Ad5 [1]; Day 4) was 8/10, the “Positive Cultures per Total, percent” value (Ad5 [1]; Day 4) was 80% and the “Positive Cultures per Total” value (Ad5 [1]; Day 5) was 8/10. The “Positive Cultures per Total, percent” value (Ad5 [1]; Day 5) was 80%, the “Positive Cultures per Total” value (Ad5 [1]; Day 7) was 4/10 and the “Positive Cultures per Total, percent” value (Ad5 [1]; Day 7) was 40% and 80%. The “Positive Cultures per Total” value (Ad5 [1]; Day 9) was 0/10, the “Positive Cultures per Total, percent” value (Ad5 [1]; Day 9) was 0% and the “Positive Cultures per Total” value (Ad5 [1]; Day 11) was 0/10. The “Positive Cultures per Total, percent” value (Ad5 [1]; Day 11) was 0%, the “Positive Cultures per Total” value (Ad5 [1]; Day 14) was 0/10 and the “Positive Cultures per Total, percent” value (Ad5 [1]; Day 14) was 0%. The “Positive Cultures per Total, Total” value (Ad5 [1]; [3]) was 36/40, the “Positive Cultures per Total, Total (%)” value (Ad5 [1]; [3]) was 90% and the “Positive Cultures per Total, Total” value (Ad5 [1]; Days 1-14) was 40/80. For the same compound, the “Positive Cultures per Total, Total (%)” value (Ad5 [1]; Days 1-14) was 50%, the “Positive Cultures per Total, Total” value (Ad5 [1]; [4]) was 4/40 and the “Positive Cultures per Total, Total (%)” value (Ad5 [1]; [4]) was 10%. For the same compound, the “Mean Combined Ocular Titers Days 1-5, comparison” value (Ad5 [1]; Early Phase) was “significantly lower Mean Combined Ocular Titers Days 1-5 compared with the saline Control”, the “Mean Combined Ocular Titers Days 7-14, comparison” value (Ad5 [1]; Late Phase) was “significantly lower Mean Combined Ocular Titers Days 7-14 compared with the saline Control” and the “Positive Cultures per Total Days 7-14, comparison” value (Ad5 [1]; Late Phase) was “significantly fewer Positive Cultures per Total Days 7-14 compared with 10% IG and the saline Control”. For the same compound, the “Mean Daily Ocular Titers, comparison” value (Ad5 [1]; days as stated) was “significantly lower titer on Day 7 compared the saline Control”, the “Antiviral efficacy, conclusion” value (Ad5 [1]; rabbit, in vivo) was “demonstrated its proven antiviral efficacy” and the “Mean Duration of Shedding, comparison” value (Ad5 [1]; rabbit, in vivo) was “significantly shorter mean durations of shedding compared with the saline Control; also recorded: significantly shorter mean duration of shedding compared with 10% IG”. For the same compound, the “Positive Cultures per Total Days 1-14, comparison” value (Ad5 [1]; rabbit, in vivo) was “significantly fewer Positive Cultures per Total Days 1-14 compared with the saline Control”, the “Adenoviral Positive Culture/total, Early Phase” value (Ad5 [2]; Days 1-5) was 72/80 and the “Adenoviral Positive Culture/total, Early Phase, percent” value (Ad5 [2]; Days 1-5) was 90.0%. The “Mean Combined Ad5 titer, Early Phase, Mean ± Sd” value (Ad5 [2]; Days 1-5, n = 80) was 1.4 ± 2.1 × 10^3 pfu/ml, the “Adenoviral Positive Culture/total, Overall” value (Ad5 [2]; Days 1-14) was 78/160 and the “Adenoviral Positive Culture/total, Overall, percent” value (Ad5 [2]; Days 1-14) was 48.75%. For the same compound, the “Adenoviral Positive Culture/total, Late Phase” value (Ad5 [2]; Days 7-14) was 6/80, the “Adenoviral Positive Culture/total, Late Phase, percent” value (Ad5 [2]; Days 7-14) was 7.5% and the “Mean Combined Ad5 titer, Late Phase, Mean ± Sd” value (Ad5 [2]; Days 7-14, n = 80) was 0.8 ± 0.4 × 10^0 pfu/ml. For the same compound, the “Duration of Ad5 Shedding, Mean ± Sd” value (Ad5 [2]; n = 20) was 5.3 ± 1.3 days, the “Antiviral activity, overall comparison” value (Ad5 [2]; rabbit, in vivo) was “equivalent antiviral inhibitory activity” and the “Duration of shedding, comparison” value (Ad5 [2]; rabbit, in vivo) was “significantly decreased the duration of shedding compared with the saline control; also recorded: significantly decreased the Mean Duration of shedding compared with IG”.
